Experiments:
[1] = target: Tyrosine-protein kinase JAK2 (Homo sapiens, UniProt O60674); conditions: at 10 µM
[2] = target: Serine/threonine-protein kinase PAK 2 (Homo sapiens) (UniProt Q13177); experiment: Selectivity interaction (KinomeScan (DiscoverX)) EUB0000229b PAK2; conditions: at 10 µM
[3] = target: T1, Serine/threonine-protein kinase VRK1 (Homo sapiens) (UniProt Q99986); experiment: Selectivity interaction (ProQinase) EUB0000171b VRK1
T1 sequence (whole entry): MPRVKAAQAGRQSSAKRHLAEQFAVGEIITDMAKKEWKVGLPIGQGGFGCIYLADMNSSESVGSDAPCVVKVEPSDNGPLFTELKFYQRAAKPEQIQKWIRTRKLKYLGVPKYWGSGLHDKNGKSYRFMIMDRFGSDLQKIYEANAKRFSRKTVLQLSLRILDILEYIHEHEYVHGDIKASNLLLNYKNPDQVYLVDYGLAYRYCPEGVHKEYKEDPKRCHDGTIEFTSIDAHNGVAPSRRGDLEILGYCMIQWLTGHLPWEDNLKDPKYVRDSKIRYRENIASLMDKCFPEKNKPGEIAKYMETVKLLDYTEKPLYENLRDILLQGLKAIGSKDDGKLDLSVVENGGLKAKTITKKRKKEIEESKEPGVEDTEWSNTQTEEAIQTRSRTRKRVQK

[4] = target: T2, Serine/threonine-protein kinase Nek2 (Homo sapiens) (UniProt P51955); experiment: Selectivity interaction (Kinase panel (DSF assay)) EUB0001559a NEK2
T2 sequence (whole entry): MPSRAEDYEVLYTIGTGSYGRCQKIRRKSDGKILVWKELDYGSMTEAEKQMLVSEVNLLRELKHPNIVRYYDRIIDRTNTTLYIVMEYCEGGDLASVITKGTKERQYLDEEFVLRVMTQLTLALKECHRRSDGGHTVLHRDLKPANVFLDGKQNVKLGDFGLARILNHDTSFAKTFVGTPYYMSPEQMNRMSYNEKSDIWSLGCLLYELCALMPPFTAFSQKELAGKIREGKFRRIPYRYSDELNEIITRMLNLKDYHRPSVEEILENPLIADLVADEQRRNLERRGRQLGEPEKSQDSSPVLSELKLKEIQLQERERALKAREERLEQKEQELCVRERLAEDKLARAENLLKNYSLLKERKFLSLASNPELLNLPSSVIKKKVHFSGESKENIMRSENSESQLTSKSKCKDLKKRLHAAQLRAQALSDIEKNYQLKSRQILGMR

[5] = target: T3, Dual specificity mitogen-activated protein kinase kinase 5 (Homo sapiens) (UniProt Q13163); experiment: Selectivity interaction (KinomeScan (DiscoverX)) EUB0001079a MAP2K5; conditions: at 1 µM
T3 sequence (whole entry): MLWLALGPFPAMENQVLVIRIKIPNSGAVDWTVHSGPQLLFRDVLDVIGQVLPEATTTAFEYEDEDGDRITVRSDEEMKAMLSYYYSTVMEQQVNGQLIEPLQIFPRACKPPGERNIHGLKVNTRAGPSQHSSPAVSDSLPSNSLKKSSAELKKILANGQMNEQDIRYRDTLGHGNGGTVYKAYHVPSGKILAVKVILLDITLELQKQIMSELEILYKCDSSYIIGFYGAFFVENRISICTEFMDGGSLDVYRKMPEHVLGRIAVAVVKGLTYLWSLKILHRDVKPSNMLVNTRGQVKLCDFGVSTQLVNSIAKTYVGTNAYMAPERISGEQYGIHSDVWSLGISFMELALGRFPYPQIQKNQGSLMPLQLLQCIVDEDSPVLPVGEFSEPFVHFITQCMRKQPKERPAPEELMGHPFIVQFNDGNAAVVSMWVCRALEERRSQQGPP

[6] = target: Cyclin-dependent kinase 3 (Homo sapiens) (UniProt Q00526); conditions: at 10 µM
[7] = target: Protein polybromo-1 (Homo sapiens) (UniProt Q86U86); experiment: Selectivity interaction (Bromodomain panel (DSF asssay)) EUB0000270b PBRM1
[8] = target: T4, Mixed lineage kinase domain-like protein (Homo sapiens) (UniProt Q8NB16); experiment: Selectivity interaction (ActivX KiNativ screen (kinase selectivity in THP-1 cell lysates)) EUB0000639a MLKL; type: subcellular; conditions: lysate
T4 sequence (whole entry): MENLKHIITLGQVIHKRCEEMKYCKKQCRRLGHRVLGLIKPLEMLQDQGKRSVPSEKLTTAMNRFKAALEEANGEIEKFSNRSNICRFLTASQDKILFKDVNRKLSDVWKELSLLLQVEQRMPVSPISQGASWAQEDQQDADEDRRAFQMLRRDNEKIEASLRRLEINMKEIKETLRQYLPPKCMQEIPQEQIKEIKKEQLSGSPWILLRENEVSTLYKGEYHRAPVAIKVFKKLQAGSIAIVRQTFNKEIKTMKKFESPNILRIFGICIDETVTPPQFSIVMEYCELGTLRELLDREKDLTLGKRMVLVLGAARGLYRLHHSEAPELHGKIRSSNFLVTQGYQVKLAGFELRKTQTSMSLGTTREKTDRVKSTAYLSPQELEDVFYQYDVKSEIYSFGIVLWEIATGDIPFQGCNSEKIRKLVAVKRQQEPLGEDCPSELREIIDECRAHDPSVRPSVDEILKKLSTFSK

[9] = tested on: Tyrosine-protein kinase ABL1 (Homo sapiens), P00519 [F317L]; experiment: Selectivity interaction (KinomeScan (DiscoverX)) EUB0000607a ABL1; conditions: at 10 µM
[10] = target: Macrophage-stimulating protein receptor (Homo sapiens, UniProt Q04912); experiment: Selectivity interaction (KinomeScan (DiscoverX)) EUB0000045b MST1R
[11] = target: Serine/threonine-protein kinase PAK 3 (Homo sapiens) (UniProt O75914); experiment: Selectivity interaction (KinomeScan (DiscoverX)) EUB0000045b PAK3
[12] = target: cAMP-dependent protein kinase catalytic subunit alpha (Homo sapiens, UniProt P17612); experiment: Selectivity interaction (KinomeScan (DiscoverX)) EUB0000618a PRKACA; conditions: at 10 µM

Chain of Macrophage-stimulating protein receptor (Q04912 25-304 limits assumed): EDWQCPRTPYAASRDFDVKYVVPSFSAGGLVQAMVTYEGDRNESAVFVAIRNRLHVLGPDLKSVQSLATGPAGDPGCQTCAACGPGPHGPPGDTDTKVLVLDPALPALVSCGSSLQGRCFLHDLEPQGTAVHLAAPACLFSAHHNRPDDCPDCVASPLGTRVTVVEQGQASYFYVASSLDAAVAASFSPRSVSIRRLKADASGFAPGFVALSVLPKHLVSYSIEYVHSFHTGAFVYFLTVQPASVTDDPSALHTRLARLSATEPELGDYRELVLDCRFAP
Chain of Macrophage-stimulating protein receptor (Q04912 310-1400 limits assumed): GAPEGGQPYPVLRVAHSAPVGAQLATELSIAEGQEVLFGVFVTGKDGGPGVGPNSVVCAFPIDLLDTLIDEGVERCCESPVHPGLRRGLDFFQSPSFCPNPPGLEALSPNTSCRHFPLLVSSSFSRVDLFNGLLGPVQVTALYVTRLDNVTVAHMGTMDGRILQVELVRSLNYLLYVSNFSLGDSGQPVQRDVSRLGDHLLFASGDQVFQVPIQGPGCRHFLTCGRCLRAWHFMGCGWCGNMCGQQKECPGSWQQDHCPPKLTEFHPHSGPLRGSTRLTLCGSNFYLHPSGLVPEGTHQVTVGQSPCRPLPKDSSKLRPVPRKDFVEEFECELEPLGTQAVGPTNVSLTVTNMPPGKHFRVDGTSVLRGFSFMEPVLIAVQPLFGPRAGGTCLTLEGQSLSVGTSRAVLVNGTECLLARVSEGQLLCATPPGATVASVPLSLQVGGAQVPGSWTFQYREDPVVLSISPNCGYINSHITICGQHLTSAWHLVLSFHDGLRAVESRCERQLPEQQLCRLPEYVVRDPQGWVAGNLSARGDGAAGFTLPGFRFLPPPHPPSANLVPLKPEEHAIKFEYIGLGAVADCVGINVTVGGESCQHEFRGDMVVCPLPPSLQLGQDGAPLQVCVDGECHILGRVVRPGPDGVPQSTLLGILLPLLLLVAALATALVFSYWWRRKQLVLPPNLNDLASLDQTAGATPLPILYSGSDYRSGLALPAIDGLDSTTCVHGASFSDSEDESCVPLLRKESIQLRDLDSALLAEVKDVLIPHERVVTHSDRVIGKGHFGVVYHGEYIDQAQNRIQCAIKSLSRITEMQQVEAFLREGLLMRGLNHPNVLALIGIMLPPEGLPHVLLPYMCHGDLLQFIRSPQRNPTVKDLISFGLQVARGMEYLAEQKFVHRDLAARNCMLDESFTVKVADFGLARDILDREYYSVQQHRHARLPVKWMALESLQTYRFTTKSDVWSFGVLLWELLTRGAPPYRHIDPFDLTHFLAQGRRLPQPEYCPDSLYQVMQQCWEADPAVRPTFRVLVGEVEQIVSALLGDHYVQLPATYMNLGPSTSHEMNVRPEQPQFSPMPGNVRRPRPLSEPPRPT
Chain of Serine/threonine-protein kinase PAK 3 (Homo sapiens) (O75914 whole entry, looked up): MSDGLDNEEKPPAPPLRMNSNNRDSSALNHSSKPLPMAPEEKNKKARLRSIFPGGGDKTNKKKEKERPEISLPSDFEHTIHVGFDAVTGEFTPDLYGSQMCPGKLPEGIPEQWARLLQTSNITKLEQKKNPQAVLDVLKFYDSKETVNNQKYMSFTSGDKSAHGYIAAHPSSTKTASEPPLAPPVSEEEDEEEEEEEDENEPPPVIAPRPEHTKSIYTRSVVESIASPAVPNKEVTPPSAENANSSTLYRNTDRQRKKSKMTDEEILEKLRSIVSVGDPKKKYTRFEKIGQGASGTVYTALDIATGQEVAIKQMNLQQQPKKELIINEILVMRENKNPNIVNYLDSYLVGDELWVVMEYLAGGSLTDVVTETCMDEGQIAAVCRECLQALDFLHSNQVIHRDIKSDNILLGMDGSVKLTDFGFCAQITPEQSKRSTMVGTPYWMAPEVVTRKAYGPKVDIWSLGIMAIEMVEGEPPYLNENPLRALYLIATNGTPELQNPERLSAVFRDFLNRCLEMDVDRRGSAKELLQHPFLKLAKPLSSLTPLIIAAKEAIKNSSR
Chain of Tyrosine-protein kinase JAK2 (O60674 whole entry): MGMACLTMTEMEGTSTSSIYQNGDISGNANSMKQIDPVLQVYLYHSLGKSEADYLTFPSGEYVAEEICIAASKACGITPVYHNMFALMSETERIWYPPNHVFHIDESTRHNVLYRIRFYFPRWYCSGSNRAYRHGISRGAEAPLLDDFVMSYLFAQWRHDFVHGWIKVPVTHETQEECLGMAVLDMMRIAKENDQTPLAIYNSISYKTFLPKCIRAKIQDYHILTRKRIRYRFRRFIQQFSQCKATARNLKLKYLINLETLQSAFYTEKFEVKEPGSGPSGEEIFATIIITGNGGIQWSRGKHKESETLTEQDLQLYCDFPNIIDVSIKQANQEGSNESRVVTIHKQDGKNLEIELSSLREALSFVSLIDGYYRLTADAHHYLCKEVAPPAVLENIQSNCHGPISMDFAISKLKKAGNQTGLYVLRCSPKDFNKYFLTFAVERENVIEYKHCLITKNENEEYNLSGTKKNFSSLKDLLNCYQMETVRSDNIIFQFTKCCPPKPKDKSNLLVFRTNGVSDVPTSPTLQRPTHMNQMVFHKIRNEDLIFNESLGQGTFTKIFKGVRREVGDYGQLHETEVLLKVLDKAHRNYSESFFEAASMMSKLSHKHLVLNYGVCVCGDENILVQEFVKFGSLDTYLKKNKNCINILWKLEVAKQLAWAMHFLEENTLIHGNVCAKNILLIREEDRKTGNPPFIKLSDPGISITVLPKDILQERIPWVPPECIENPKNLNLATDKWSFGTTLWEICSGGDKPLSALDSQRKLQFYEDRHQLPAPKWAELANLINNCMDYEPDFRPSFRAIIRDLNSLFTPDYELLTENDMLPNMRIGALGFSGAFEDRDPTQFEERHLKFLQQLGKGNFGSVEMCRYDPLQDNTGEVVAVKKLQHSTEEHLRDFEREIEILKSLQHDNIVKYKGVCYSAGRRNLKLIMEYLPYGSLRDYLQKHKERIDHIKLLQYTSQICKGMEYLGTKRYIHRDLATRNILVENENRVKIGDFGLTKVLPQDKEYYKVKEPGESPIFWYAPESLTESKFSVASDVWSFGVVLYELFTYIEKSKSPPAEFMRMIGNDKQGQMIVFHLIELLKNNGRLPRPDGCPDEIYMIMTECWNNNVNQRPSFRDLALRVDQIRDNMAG
Chain of Cyclin-dependent kinase 3 (Homo sapiens) (Q00526 whole entry, looked up): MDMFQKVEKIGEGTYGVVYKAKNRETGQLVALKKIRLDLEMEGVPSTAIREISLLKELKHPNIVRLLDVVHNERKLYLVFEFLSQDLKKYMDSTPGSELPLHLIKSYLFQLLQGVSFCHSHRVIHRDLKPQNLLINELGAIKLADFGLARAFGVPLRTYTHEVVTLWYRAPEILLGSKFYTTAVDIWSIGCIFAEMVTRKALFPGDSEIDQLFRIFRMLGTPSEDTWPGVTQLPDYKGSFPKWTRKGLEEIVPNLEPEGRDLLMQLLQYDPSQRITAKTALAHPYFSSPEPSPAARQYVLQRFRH
Chain of Tyrosine-protein kinase ABL1 (Homo sapiens), P00519 [F317L] (P00519 whole entry F317L): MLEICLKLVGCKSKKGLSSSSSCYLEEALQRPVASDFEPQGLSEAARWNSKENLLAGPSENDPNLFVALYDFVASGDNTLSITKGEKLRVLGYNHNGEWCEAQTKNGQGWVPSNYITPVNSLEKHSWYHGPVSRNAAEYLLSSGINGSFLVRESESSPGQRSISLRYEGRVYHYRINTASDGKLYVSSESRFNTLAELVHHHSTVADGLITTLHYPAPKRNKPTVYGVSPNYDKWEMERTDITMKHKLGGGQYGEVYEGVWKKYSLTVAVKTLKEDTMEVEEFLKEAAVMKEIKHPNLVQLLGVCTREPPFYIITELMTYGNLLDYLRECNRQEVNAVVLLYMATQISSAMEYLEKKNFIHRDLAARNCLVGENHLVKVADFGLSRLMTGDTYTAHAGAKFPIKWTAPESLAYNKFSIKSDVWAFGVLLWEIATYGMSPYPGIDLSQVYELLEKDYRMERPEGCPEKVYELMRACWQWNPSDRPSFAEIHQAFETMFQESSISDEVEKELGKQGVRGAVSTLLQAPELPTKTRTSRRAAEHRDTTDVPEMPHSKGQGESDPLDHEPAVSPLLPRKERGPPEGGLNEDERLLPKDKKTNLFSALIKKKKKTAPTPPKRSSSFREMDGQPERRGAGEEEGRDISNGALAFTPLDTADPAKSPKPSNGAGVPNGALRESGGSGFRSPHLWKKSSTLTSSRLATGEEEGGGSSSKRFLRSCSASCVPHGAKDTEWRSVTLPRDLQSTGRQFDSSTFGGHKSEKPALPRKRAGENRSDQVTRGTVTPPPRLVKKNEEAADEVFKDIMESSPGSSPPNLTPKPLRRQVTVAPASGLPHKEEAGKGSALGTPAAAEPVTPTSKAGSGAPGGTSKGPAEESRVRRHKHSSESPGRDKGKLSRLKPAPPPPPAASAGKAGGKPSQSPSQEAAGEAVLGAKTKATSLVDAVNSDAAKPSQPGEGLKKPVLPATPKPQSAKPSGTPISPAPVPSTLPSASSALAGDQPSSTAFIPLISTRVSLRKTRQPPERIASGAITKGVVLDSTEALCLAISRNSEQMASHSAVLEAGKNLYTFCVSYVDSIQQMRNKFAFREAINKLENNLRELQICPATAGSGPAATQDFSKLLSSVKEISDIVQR
Chain of Serine/threonine-protein kinase PAK 2 (Homo sapiens) (Q13177 whole entry): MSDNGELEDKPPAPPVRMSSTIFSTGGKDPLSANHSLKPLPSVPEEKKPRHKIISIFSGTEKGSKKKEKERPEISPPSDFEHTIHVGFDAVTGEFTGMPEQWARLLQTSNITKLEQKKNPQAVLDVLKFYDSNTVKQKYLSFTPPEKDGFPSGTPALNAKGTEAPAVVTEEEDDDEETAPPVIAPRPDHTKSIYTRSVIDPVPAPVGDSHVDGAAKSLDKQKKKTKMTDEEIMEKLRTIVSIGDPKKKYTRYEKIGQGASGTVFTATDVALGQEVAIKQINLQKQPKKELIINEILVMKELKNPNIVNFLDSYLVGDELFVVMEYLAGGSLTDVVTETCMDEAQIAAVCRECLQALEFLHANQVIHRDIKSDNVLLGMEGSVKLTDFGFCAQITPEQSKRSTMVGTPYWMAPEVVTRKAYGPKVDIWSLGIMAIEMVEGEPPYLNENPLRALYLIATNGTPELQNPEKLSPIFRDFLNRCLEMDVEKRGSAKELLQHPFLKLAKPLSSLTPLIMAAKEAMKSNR

Compound `CCN(CC)CCCCNc1ncc2cc(-c3cc(OC)cc(OC)c3)c(NC(=O)NC(C)(C)C)nc2n1` has a % of control [1] of 100%.
`COc1cc(N(C)c2ccnc3ccc(C(F)(F)F)cc23)cc(OC)c1OC` gave a % binding [2] of 77%.
`C=CC(=O)Nc1cccc(C(=O)Nc2ccc(Nc3cc(-c4[nH]c(SC)nc4C)ccn3)cc2)c1` was tested, and the % of control ([3]; at 1 µM) was 95% and the % of control ([3]; at 5 µM) was 97%.
`CN(C(=O)c1cnn2cccnc12)c1cc2c(cc1N1CCOCC1)C(=O)N(C[C@@H](F)C(C)(C)O)C2` showed a dTM [4] of 2.1 K.
Work on `Nc1cnc(N2CCc3cc(S(=O)(=O)Nc4c(F)cc(Cl)cc4F)cc(N4CCCC4=O)c32)nc1` [TP-020n] yielded a % of control [5] of 84%.
In the case of `Cc1cc([C@@H](C)Nc2ccccc2C(=O)O)c2nc(N3CCOCC3)cc(=O)n2c1` [AZD-6482], the % of control [6] is reported as 100%.
`Cc1cc(CN)cc(C)c1-c1ncn(C)c1-c1cncn1C` gave a dTM [7] of -1.74 K.
With `CC[C@@H]1[C@H](F)C(=O)N[C@@H]1COc1nccc2cc(C(N)=O)c(OC)cc12` [ZIMLOVISERTIB] the % of inhibition ([8]; at 0.01 µM) was -3.7%, the % of inhibition ([8]; at 0.04 µM) was 7.2% and the % of inhibition ([8]; at 0.2 µM) was 16.3%. The % of inhibition ([8]; at 1 µM) was 42.3% and the % of inhibition ([8]; at 5 µM) was 76.6%.
Work on `CNC(=O)Nc1ccc(-c2nc(N3CC4CCC(C3)O4)c3cnn(C4CCC5(CC4)OCCO5)c3n2)cc1` yielded a % of control [9] of 96%.
`C=CC(=O)Nc1cc(-n2c(=O)ccc3cnc4ccc(-c5ccc(NS(C)(=O)=O)cc5)cc4c32)ccc1C` was tested, and the % of control ([10]; at 1 µM) was 100%, the % of control ([10]; at 10 µM) was 100% and the % of control ([11]; at 1 µM) was 92%. The % of control ([11]; at 10 µM) was 100%.
`O[C@H]1CC[C@H](Nc2ncc3nc(Nc4c(F)cc(F)cc4F)n([C@H]4CCOC4)c3n2)CC1` was tested, and the % of control [12] was 100%.
